# Tested on: EC efflux and release in U937 cells
# Test: EC efflux and release in U937 cells
# Type: cell-based
# Protocol: All radioactivity-based AEA and 2-AG uptake and release assays performed in U937, and HMC-1 cells were carried out using two different assay formats as previously reported. AEA and 2-AG uptake assay in Neuro2a and primary mouse cortical neurons were performed with a different method disclosed in Chicca 2017.
structure (smiles),measurement,setting,value
"CCCCCCC/C=C/C=C/C(=O)NCCc1ccc(OC)c(OC)c1 [WOBE437, (2E,4E)-N-[2-(3,4-Dimethoxyphenyl)ethyl]dodeca-2,4-dienamide]",inhibition of EC release,,20%
same,effect on EC release,"cells stimulated with ATP, thapsigargin and ionomycin",blocked the release of both ECs
same,effect on AEA efflux,pre-loaded U937 cells,inhibited the efflux of AEA
